Source: US20260256792A1, “TREATMENT OF CHRONIC SPONTANEOUS URTICARIA BY ADMINISTERING (R)-2-[3-[4-AMINO-3-(2-FLUORO-4-PHENOXY-PHENYL)PYRAZOLO[3,4-D]PYRIMIDIN-1-YL]PIPERIDINE-1-CARBONYL]-4-METHYL-4-[4-(OXETAN-3-YL)PIPERAZIN-1-YL]PENT-2-ENENITRILE” (priority 2023, published 2026)

System: moderate-to-severe chronic spontaneous urticaria (CSU)
Assay: Phase 2 CSU study: urticaria activity score over 7 days (UAS7)
Type: in vivo, human
Conditions: for RRD (%) for rilzabrutinib vs. placebo, UAS7 = 0 / RRD (%) for rilzabrutinib vs. placebo, UAS7 ≤6 / Responder n (%), UAS7 = 0 / Responder n (%), UAS7 ≤6 / Imputed non-responder n (%), UAS7 = 0 / Imputed non-responder n (%), UAS7 ≤6 / Non-responder n (%), UAS7 = 0 / Non-responder n (%), UAS7 ≤6 / OR for rilzabrutinib vs. placebo, UAS7 = 0 / OR for rilzabrutinib vs. placebo, UAS7 ≤6: ITT, 400 mg TID; for UAS7 Post-baseline Mean (SD): Omalizumab-Naïve Population with Outlier Removed
Description: The study comprises a 12 week, randomized, double-blind, placebo-controlled, multi-center, dose-ranging efficacy and safety phase, followed by a 40 week open label extension (OLE) phase (see FIG. 1). The study consists of three phases and an optional OLE phase. […] Clinically, CSU is characterized by the spontaneous and recurrent appearance of pruritic hives. The proposed primary endpoints were the UAS7 at Week 12 in EU and EU reference countries and the ISS7 in the US. Regardless of where a participant was from, all assessments were the same. The UAS7 score is a composite score containing both the HSS7 and the ISS7. This allowed a global assessment of the two key components of urticaria: hives and itch. […] The UAS is a validated PRO measure. […] The daily UAS scores range from 0 to 6 point/day. […] Patients were to complete the UAS using the e-diary. […] The following secondary endpoints were to be analyzed using the same approach as for the primary endpoint: • Change from baseline in UAS7 at Week 4 • Change from baseline in UAS7 at Week 12 (for US and US reference countries) • Change from baseline in ISS7 at Week 12 (except US and US reference countries) • Change from baseline in HSS7 at Week 12 The following responder secondary endpoints were to be analyzed using the Cochran-Mantel-Haenszel test adjusted by region: • Proportion of participants with UAS7<6 at Week 12 • Proportion of participants with UAS7=0 at Week 12 Participants who received selected prohibited medications and/or rescue medications were to be considered as non-responders for time points after the medication usage. For other participants, all available data including those collected during the off-treatment period were to be used to determine the responder/non-responder status. Missing data were to be considered as non-responders.

`CC(C)(C=C(C#N)C(=O)N1CCC[C@@H](n2nc(-c3ccc(Oc4ccccc4)cc3F)c3c(N)ncnc32)C1)N1CCN(C2COC2)CC1` [rilzabrutinib, (R)-2-[3-[4-amino-3-(2-fluoro-4-phenoxy-phenyl)pyrazolo[3,4-d]pyrimidin-1-yl]piperidine-1-carbonyl]-4-methyl-4-[4-(oxetan-3-yl)piperazin-1-yl]pent-2-enenitrile] was tested, and the “RRD (%) for rilzabrutinib vs. placebo, UAS7 = 0” value (from here on “RRD (%) … UAS7 = 0”) (Week 7) was 6.9 %, the “RRD (%) for rilzabrutinib vs. placebo, UAS7 ≤6” value (“RRD (%) … UAS7 ≤6” for short) (Week 7) was 16.1 % and the “Responder n (%), UAS7 = 0” value (Week 7) was 4 (9.8) n (%). For the same molecule, the “Responder n (%), UAS7 ≤6” value (Week 7) was 11 (26.8) n (%), the “Imputed non-responder n (%), UAS7 = 0” value (Week 8) was 8 (19.5) n (%) and the “Imputed non-responder n (%), UAS7 ≤6” value (Week 8) was 8 (19.5) n (%). For the same molecule, the “Non-responder n (%), UAS7 = 0” value (Week 8) was 37 (90.2) n (%), the “Non-responder n (%), UAS7 ≤6” value (Week 8) was 28 (68.3) n (%) and the “OR for rilzabrutinib vs. placebo, UAS7 = 0” value (Week 8) was 1.697. For the same molecule, the “OR for rilzabrutinib vs. placebo, UAS7 ≤6” value (Week 8) was 2.257, the “RRD (%) … UAS7 = 0” value (Week 8) was 3.2 % and the “RRD (%) … UAS7 ≤6” value (Week 8) was 12.7 %. The “Responder n (%), UAS7 = 0” value (Week 8) was 4 (9.8) n (%), the “Responder n (%), UAS7 ≤6” value (Week 8) was 13 (31.7) n (%) and the “Imputed non-responder n (%), UAS7 = 0” value (Week 9) was 7 (17.1) n (%). For the same molecule, the “Imputed non-responder n (%), UAS7 ≤6” value (Week 9) was 7 (17.1) n (%), the “Non-responder n (%), UAS7 = 0” value (Week 9) was 37 (90.2) n (%) and the “Non-responder n (%), UAS7 ≤6” value (Week 9) was 26 (63.4) n (%). The “OR for rilzabrutinib vs. placebo, UAS7 = 0” value (Week 9) was 1.117, the “OR for rilzabrutinib vs. placebo, UAS7 ≤6” value (Week 9) was 4.680 and the “RRD (%) … UAS7 = 0” value (Week 9) was 0.8 %. The “RRD (%) … UAS7 ≤6” value (Week 9) was 22.0 %, the “Responder n (%), UAS7 = 0” value (Week 9) was 4 (9.8) n (%) and the “Responder n (%), UAS7 ≤6” value (Week 9) was 15 (36.6) n (%). The “Imputed non-responder n (%), UAS7 = 0” value (Week 10) was 7 (17.1) n (%), the “Imputed non-responder n (%), UAS7 ≤6” value (Week 10) was 7 (17.1) n (%) and the “Non-responder n (%), UAS7 = 0” value (Week 10) was 35 (85.4) n (%). For the same molecule, the “Non-responder n (%), UAS7 ≤6” value (Week 10) was 27 (65.9) n (%), the “OR for rilzabrutinib vs. placebo, UAS7 = 0” value (Week 10) was 1.210 and the “OR for rilzabrutinib vs. placebo, UAS7 ≤6” value (Week 10) was 2.074. The “RRD (%) … UAS7 ≤6” value (Week 10) was 12.9 %, the “Responder n (%), UAS7 = 0” value (Week 10) was 6 (14.6) n (%) and the “Responder n (%), UAS7 ≤6” value (Week 10) was 14 (34.1) n (%). For the same molecule, the “Imputed non-responder n (%), UAS7 = 0” value (Week 11) was 6 (14.6) n (%), the “Imputed non-responder n (%), UAS7 ≤6” value (Week 11) was 6 (14.6) n (%) and the “Non-responder n (%), UAS7 = 0” value (Week 11) was 34 (82.9) n (%). The “Non-responder n (%), UAS7 ≤6” value (Week 11) was 26 (63.4) n (%), the “OR for rilzabrutinib vs. placebo, UAS7 = 0” value (Week 11) was 3.449 and the “OR for rilzabrutinib vs. placebo, UAS7 ≤6” value (Week 11) was 2.322. For the same molecule, the “RRD (%) … UAS7 = 0” value (Week 11) was 10.4 %, the “RRD (%) … UAS7 ≤6” value (Week 11) was 15.0 % and the “Responder n (%), UAS7 = 0” value (Week 11) was 7 (17.1) n (%). For the same molecule, the “Responder n (%), UAS7 ≤6” value (Week 11) was 15 (36.6) n (%), the “Imputed non-responder n (%), UAS7 = 0” value (Week 12) was 11 (26.8) n (%) and the “Imputed non-responder n (%), UAS7 ≤6” value (Week 12) was 11 (26.8) n (%). For the same molecule, the “Non-responder n (%), UAS7 = 0” value (Week 12) was 31 (75.6) n (%), the “Non-responder n (%), UAS7 ≤6” value (Week 12) was 26 (63.4) n (%) and the “OR for rilzabrutinib vs. placebo, UAS7 = 0” value (Week 12) was 1.995. For the same molecule, the “OR for rilzabrutinib vs. placebo, UAS7 ≤6” value (Week 12) was 3.721, the “RRD (%) … UAS7 = 0” value (Week 12) was 9.4 % and the “RRD (%) … UAS7 ≤6” value (Week 12) was 20.9 %. The “Responder n (%), UAS7 = 0” value (Week 12) was 10 (24.4) n (%), the “Responder n (%), UAS7 ≤6” value (Week 12) was 15 (36.6) n (%) and the “UAS7 Post-baseline Mean (SD)” value (400 mg BID, Week 1) was 19.77 (11.32). The “UAS7 Post-baseline Mean (SD)” value (400 mg BID, Week 2) was 19.59 (10.86), the “UAS7 Post-baseline Mean (SD)” value (400 mg BID, Week 3) was 17.71 (11.91) and the “UAS7 Post-baseline Mean (SD)” value (400 mg BID, Week 4) was 15.92 (11.71). The “UAS7 Post-baseline Mean (SD)” value (400 mg BID, Week 5) was 17.22 (13.36), the “UAS7 Post-baseline Mean (SD)” value (400 mg BID, Week 6) was 17.02 (12.76) and the “UAS7 Post-baseline Mean (SD)” value (400 mg BID, Week 7) was 15.55 (11.97). For the same molecule, the “UAS7 Post-baseline Mean (SD)” value (400 mg BID, Week 8) was 13.98 (13.06), the “UAS7 Post-baseline Mean (SD)” value (400 mg BID, Week 9) was 14.64 (14.43) and the “UAS7 Post-baseline Mean (SD)” value (400 mg BID, Week 10) was 15.22 (14.36). The “UAS7 Post-baseline Mean (SD)” value (400 mg BID, Week 11) was 15.06 (13.80), the “UAS7 Post-baseline Mean (SD)” value (400 mg BID, Week 12) was 15.61 (13.91) and the “UAS7 Post-baseline Mean (SD)” value (400 mg QPM, Week 1) was 23.81 (8.78).
